Data on 6 compounds can be found in patent US20230173076A1, “METABOLICALLY STABLE PEPTIDE ANALOGS” (UNIVERSITÉ DE STRASBOURG, priority 2016, published 2023).

The nature of data set [1]: Solubility study in water by visual observation.
Protocol: (§1) The resulting solution was vortexed 1 min following by 1 min in bath sonication. Solubility was then assessed by visual observation of the resulting dispersion (Clear/Cloudy and presence of particulates).
The nature of data set [2]: Human plasma stability (HPLC-MS/MS). As to conditions: 37° C.; for Human plasma stability (t1/2): 1 μM; for half-life at 1 μM: human, plasma, Human plasma stability (t1/2).
Protocol: (§2) This procedure is designed to determine the stability of a test compound in blood or plasma from human or animal species in a 96-well plate format. The test compound is quantified at 5 time points by HPLC-MS/MS analysis.
(§3) Test concentration: 1 μM with a final DMSO concentration of 0.5%.
(§4) Experimental protocol : Blood or plasma are pre-warmed at 37° C. water bath for 5 min, followed by addition of the test compound. The incubation is performed in a 37° C. water bath for 2 h. An aliquot of the incubation mixture is transferred to acetonitrile at 0, 0.5, 1, 1.5 and 2 h, respectively. Samples are then mixed and centrifuged. Supernatants are used for HPLC-MS/MS analysis. Reference compounds Propoxycaine and propantheline are tested simultaneously with the test compound in each assay. Analytical methods Samples are analyzed by HPLC-MS/MS using selected reaction monitoring. The HPLC system consists of a binary LC pump with autosampler, a C-18 column, and a gradient. Conditions may be adjusted as necessary. Data analysis Peak areas corresponding to the test compound are recorded. The compound remaining (%) is calculated by comparing the peak area at each time point to time zero. The half-life is calculated from the slope of the initial linear range of the logarithmic curve of compound remaining (%) vs. time, assuming first order kinetics
(§5) Test concentration: 1 μM with a final DMSO concentration of 0.5%. Experimental protocol: Blood or plasma are pre-warmed at 37° C. water bath for 5 min, followed by addition of the test compound. The incubation is performed in a 37° C. water bath for 2 h. An aliquot of the incubation mixture is transferred to acetonitrile at 0, 0.5, 1, 1.5 and 2 h, respectively. Samples are then mixed and centrifuged. Supernatants are used for HPLC-MS/MS analysis. Reference compounds Propoxycaine and propantheline are tested simultaneously with the test compound in each assay. Analytical methods Samples are analyzed by HPLC-MS/MS using selected reaction monitoring. The HPLC system consists of a binary LC pump with autosampler, a C-18 column, and a gradient. Conditions may be adjusted as necessary. Data analysis Peak areas corresponding to the test compound are recorded. The compound remaining (%) is calculated by comparing the peak area at each time point to time zero. The half-life is calculated from the slope of the initial linear range of the logarithmic curve of compound remaining (%) vs. time, assuming first order kinetics
(§6) Test concentration: 1 μM with a final DMSO concentration of 0.5%. Experimental protocol: Blood or plasma are pre-warmed at 37° C. water bath for 5 min, followed by addition of the test compound. The incubation is performed in a 37° C. water bath for 2 h. An aliquot of the incubation mixture is transferred to acetonitrile at 0, 0.5, 1, 1.5 and 2 h, respectively. Samples are then mixed and centrifuged. Supernatants are used for HPLC-MS/MS analysis. Reference compounds Propoxycaine and propantheline are tested simultaneously with the test compound in each assay. Analytical methods Samples are analyzed by HPLC-MS/MS using selected reaction monitoring. The HPLC system consists of a binary LC pump with autosampler, a C-18 column, and a gradient. Conditions may be adjusted as necessary. Data analysis Peak areas corresponding to the test compound are recorded. The compound remaining (%) is calculated by comparing the peak area at each time point to time zero. The half-life is calculated from the slope of the initial linear range of the logarithmic curve of compound remaining (%) vs. time, assuming first order kinetics.
The nature of another data set: in vitro. As to conditions: human, plasma, Human plasma stability (t1/2).
The target in data set [3] is T1, human vasopressin Oxytocin receptor (Homo sapiens, UniProt P30559).
T1 construct: expressed in transfected cells; host or cells: Chem-1 cells (membrane homogenates)
T1 sequence (P30559 1-389): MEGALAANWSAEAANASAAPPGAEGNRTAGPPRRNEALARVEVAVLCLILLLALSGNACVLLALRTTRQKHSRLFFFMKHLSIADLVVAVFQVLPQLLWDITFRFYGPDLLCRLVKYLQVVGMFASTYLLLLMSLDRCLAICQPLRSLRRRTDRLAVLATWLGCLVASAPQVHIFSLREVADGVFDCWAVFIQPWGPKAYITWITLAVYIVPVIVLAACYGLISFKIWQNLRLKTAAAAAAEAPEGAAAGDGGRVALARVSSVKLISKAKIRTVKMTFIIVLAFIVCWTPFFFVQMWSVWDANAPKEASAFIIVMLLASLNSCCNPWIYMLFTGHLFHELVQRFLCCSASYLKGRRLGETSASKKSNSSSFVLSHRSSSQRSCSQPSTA
The data set is described as follows: Radioligand binding assay, human oxytocin receptor in transfected Chem-1 cells. As to conditions: read-out: Affinity % of inhibition à 10 nM. Here is the method: Experimental protocol: […] Following incubation, the samples are filtered rapidly under vacuum through glass fiber filters (GF/B, Packard) presoaked with 0.3% PEI and rinsed several times with ice-cold 50 mM Tris-HCl and 0.1% BSA using a 96-sample cell harvester (Unifilter, Packard). The filters are dried then counted for radioactivity in a scintillation counter (Topcount, Packard) using a scintillation cocktail (Microscint 0, Packard). The results are expressed as a percent inhibition of the control radioligand specific binding.

For orientation: solubility means the dissolved amount per volume that the medium holds. Higher therefore signals much dissolved substance. A word on the half-life: it is the time needed for the level to fall by half in the phase considered. The low end stands for rapid decline, the high end for slow decline. As usually defined, the inhibition is the relative decrease from the control value, in per cent.

Positions of bridges follow the written chain, without caps; N, C: chain ends. Non-standard residues stand in square brackets, D forms with d. Residues, ends and D or L forms follow the SMILES beside them. ξ: configuration not given here. *: point of attachment. X1 = CCN([C@@H](C)C(=O)C[C@@H](CCCCNC(=O)CCC(F)(F)C(F)(F)C(F)(F)C(F)(F)C(F)(F)C(F)(F)C(F)(F)C(F)(F)F)C(=O)NCC(N)=O)*; Ile(3ξ) = CCC(C)[C@H](N)C(=O)O

Protocol for in vitro: as §2, §3, §4, §5, §6
Protocol for physchem: as §1

For the compound `CC[C@H](C)[C@H](NC(=O)[C@H](Cc1ccc(O)cc1)NC(=O)[C@@H](NC(=O)[C@H](CCCNC(=N)N)NC(=O)[C@@H](N)CC(=O)O)C(C)C)C(=O)N[C@@H](Cc1cnc[nH]1)C(=O)N1CCC[C@H]1C(=O)N[C@@H](Cc1ccccc1)C(=O)O` [Angiotensin II, reference compound], the solubility at 2 min in data set [1] is > 100 µM.
Turning to `CC[C@H](C)[C@H](NC(=O)[C@H](Cc1ccc(O)cc1)NC(=O)[C@@H](NC(=O)[C@H](CCCNC(=N)N)NC(=O)[C@H](CC(=O)O)NC(=O)CCC(F)(F)C(F)(F)C(F)(F)C(F)(F)C(F)(F)C(F)(F)C(F)(F)C(F)(F)F)C(C)C)C(=O)N[C@@H](Cc1cnc[nH]1)C(=O)N1CCC[C@H]1C(=O)N[C@@H](Cc1ccccc1)C(=O)O` [LE120], the solubility at 2 min in data set [1] was > 100 µM. Further, in data set [2] (angiotensin II analogs table), the “Human plasma stability (t1/2)” value was >24 h and the half-life at 1 μM is > 24 h.
Regarding `CSCC[C@H](NC(=O)[C@@H]1CCCN1C(=O)CNC(=O)[C@H](CCCCN)NC(=O)[C@H](Cc1c[nH]cn1)NC(=O)[C@H](CO)NC(=O)[C@H](CC(C)C)NC(=O)[C@H](CCCNC(=N)N)NC(=O)[C@@H]1CCCN1C(=O)[C@H](CCCNC(=N)N)NC(=O)[C@H](CCC(N)=O)NC(=O)CCC(F)(F)C(F)(F)C(F)(F)C(F)(F)C(F)(F)C(F)(F)C(F)(F)C(F)(F)F)C(=O)N1CCC[C@H]1C(=O)N[C@@H](Cc1ccccc1)C(=O)O` [LE-122], in data set [2] (apelin analogs table), the “Human plasma stability (t1/2)” value was 20.68 h and the half-life at 1 μM was > 20.7 h. Moreover, the solubility at 2 min in the data set “physchem” was > 100 µM.
In data set [2] (apelin analogs table), `CSCC[C@H](NC(=O)[C@@H]1CCCN1C(=O)CNC(=O)[C@H](CCCCN)NC(=O)[C@H](Cc1c[nH]cn1)NC(=O)[C@H](CO)NC(=O)[C@H](CC(C)C)NC(=O)[C@H](CCCNC(=N)N)NC(=O)[C@@H]1CCCN1C(=O)[C@H](CCCNC(=N)N)NC(=O)[C@H](CCC(N)=O)NC(=O)[C@@H](N)CCCCNC(=O)CCC(F)(F)C(F)(F)C(F)(F)C(F)(F)C(F)(F)C(F)(F)C(F)(F)C(F)(F)F)C(=O)N1CCC[C@H]1C(=O)N[C@@H](Cc1ccccc1)C(=O)O` [LE-124] had a half-life at 1 μM of 5.95 h.
Regarding `CC[C@H](C)[C@@H]1NC(=O)[C@H](Cc2ccc(O)cc2)NC(=O)[C@@H](N)CSSC[C@@H](C(=O)N2CCC[C@H]2C(=O)N[C@@H](CC(C)C)C(=O)NCC(N)=O)NC(=O)[C@H](CC(N)=O)NC(=O)[C@H](CCC(N)=O)NC1=O` [Oxytocin, reference compound], the half-life at 1 μM in “in vitro” came out at 2.45 h. In “physchem”, the solubility at 2 min was > 100 µM. Also, the inhibition at 0.01 µM in data set [3] is 102%.
Compound `CCC(C)[C@@H]1NC(=O)[C@H](Cc2ccc(O)cc2)NC(=O)[C@@H](N)CSSC[C@@H](C(=O)N(CC)[C@@H](C)C(=O)C[C@@H](CCCCNC(=O)CCC(F)(F)C(F)(F)C(F)(F)C(F)(F)C(F)(F)C(F)(F)C(F)(F)C(F)(F)F)C(=O)NCC(N)=O)NC(=O)[C@H](CC(N)=O)NC(=O)[C@H](CCC(N)=O)NC1=O` (some centres unmarked) [SR-11-74] (H-CY[Ile(3ξ)]QNC-X1; disulfide 1-6) came in with a half-life at 1 μM in data set [2] (oxytocin analogs table) of 3.98 h. Moreover, the solubility at 2 min in “physchem” is > 100 µM. Besides, the inhibition at 0.01 µM in data set [3] was determined as 91.3%.
